Assays:
PI3Kα (p110α/p85α) = PI3Kα (p110α/p85α) (Homo sapiens (Human), UniProt P42336); test: PI3Kα enzymatic test by measuring the consumption of ATP; assay type: biochemical
In short: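 ATP consumption read out by KinaseGlo luminescence after a 90 min reaction of 1.7 μg/ml PI3Kα (p110α/p85α) with 2 μM ATP and 50 μM PIP2, buffered at pH 7.5 (Tris, 10 mM MgCl2, 1 mM EGTA, 0.03% Chaps, 1 mM DTT). Threefold dilution series over ≥10 000-fold range yield IC50.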

Akt-pS473 in U87MG cells = details: Homo sapiens, U-87 MG; for IC50: read-out: U87 Akt-pS473 % Inhibition or IC50, nM (IC50), U87MG cells
U87MG tumour cells = test: Test of in vitro proliferation of U87MG tumour cells; assay type: cell-based; details: Homo sapiens, U-87 MG, 72 h, U87MG cells, 72 hours; read-out: U87 Cell Proliferation IC50
Protocol: Model 4: Test of in vitro Proliferation of U87MG Tumour Cells.
The cell growth is determined with the reagent CellTiter 96 AQueous One Solution Cell Proliferation Assay from Promega (Cat. No. G3581).

[1] = molecular target: mTOR (human recombinant aa mTOR 1360-2549) (Homo sapiens (Human), UniProt P42345); test: mTOR enzymatic test by TR-FRET (phosphorylation of GFP-4EBP1); assay type: biochemical
In short: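 After a 30 min room-temperature kinase reaction, EDTA (10 mM final) and Tb-labelled phospho-Thr46 antibody (2 nM final) were added and incubated 60 min. Energy transfer from Tb to phosphorylated GFP-4EBP1 was read at 340 nm excitation, emissions 490/520 nm. Values derive from the 520/490 fluorescence ratio.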

Chain of PI3Kα (p110α/p85α) (P42336 whole entry): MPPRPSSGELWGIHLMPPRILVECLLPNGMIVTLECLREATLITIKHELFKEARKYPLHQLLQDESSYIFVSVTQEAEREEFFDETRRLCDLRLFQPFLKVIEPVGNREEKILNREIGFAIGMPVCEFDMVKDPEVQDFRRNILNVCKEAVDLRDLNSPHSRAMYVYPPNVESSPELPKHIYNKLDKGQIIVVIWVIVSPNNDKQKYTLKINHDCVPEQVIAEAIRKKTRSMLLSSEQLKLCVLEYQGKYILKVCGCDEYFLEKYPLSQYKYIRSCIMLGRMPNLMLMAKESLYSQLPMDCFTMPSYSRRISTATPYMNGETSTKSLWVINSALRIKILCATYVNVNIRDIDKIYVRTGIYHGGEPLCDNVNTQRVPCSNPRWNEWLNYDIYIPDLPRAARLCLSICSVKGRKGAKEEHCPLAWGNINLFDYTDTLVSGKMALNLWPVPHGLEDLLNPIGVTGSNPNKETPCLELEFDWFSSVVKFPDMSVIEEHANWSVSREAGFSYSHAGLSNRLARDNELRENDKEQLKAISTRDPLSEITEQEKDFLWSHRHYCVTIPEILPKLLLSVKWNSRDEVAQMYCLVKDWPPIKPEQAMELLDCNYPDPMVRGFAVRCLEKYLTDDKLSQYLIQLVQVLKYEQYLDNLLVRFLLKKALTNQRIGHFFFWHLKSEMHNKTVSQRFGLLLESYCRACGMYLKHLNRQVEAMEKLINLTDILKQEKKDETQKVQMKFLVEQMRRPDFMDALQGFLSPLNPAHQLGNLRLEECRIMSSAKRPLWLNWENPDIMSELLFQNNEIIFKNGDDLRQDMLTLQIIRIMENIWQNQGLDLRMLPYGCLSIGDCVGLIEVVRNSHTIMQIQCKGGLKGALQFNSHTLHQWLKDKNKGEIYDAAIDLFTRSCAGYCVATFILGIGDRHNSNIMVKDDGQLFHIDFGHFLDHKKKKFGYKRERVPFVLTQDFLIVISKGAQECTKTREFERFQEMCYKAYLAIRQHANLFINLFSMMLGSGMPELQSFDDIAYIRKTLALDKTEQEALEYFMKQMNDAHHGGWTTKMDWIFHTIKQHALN
Chain of PI3Kα (p110α/p85α) (P27986 whole entry partner): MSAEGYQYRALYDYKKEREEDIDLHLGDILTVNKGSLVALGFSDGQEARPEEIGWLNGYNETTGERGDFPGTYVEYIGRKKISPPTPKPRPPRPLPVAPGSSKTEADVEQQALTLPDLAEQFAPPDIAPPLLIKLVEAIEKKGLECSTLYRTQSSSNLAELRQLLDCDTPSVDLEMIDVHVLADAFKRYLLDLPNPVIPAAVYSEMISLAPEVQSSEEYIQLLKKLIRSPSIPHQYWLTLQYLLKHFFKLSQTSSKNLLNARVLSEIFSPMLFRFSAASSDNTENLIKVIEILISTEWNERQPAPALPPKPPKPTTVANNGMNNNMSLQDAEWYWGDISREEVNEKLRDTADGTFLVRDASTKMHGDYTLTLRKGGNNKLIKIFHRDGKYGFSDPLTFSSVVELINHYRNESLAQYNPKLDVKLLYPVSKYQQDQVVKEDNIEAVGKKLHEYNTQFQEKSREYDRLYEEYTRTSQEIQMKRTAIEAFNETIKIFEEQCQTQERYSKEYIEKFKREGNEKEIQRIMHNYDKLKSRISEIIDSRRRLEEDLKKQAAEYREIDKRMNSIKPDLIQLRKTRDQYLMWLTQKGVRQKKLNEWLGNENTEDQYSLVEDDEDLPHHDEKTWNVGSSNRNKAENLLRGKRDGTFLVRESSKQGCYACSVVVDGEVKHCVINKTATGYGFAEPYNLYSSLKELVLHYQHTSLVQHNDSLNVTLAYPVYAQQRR
Chain of mTOR (human recombinant aa mTOR 1360-2549) (P42345 1360-2549): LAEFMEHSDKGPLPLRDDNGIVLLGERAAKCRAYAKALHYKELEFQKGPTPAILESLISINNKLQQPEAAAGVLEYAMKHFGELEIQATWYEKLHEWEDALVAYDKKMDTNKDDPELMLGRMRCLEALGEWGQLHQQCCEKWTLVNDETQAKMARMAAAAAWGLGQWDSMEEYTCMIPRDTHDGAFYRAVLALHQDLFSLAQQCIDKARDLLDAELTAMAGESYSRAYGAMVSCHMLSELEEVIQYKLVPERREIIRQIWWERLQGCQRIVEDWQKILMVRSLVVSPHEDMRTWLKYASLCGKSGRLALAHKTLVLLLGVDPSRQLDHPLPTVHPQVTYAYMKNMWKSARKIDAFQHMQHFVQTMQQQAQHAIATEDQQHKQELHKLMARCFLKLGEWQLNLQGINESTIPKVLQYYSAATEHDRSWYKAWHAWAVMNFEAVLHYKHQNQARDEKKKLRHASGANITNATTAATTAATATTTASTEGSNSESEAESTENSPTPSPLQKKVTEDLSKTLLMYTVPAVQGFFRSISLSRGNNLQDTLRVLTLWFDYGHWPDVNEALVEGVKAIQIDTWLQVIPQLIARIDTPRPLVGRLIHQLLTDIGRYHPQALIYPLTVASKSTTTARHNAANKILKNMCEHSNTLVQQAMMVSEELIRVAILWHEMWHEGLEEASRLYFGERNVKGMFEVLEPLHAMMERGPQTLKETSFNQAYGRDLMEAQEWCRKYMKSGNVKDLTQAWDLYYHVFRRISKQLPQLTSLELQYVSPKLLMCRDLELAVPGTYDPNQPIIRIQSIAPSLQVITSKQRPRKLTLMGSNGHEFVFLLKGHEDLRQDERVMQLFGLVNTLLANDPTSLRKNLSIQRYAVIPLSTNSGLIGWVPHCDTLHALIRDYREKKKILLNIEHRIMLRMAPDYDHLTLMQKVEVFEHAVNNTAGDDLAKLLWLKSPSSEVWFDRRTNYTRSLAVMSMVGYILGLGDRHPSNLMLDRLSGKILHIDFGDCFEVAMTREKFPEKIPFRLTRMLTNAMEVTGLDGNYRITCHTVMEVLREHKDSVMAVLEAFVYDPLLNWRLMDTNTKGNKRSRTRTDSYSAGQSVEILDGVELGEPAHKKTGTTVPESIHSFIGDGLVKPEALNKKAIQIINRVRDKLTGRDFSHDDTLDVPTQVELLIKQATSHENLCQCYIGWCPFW

`C[C@H]1COCCN1c1ccc(NC(=O)Nc2ccc(-c3nc(N4CC5CCC(C4)O5)nc4c3C(=O)N(C)CC(C)(C)O4)cc2F)cn1` [Example 73, 1-{2-Fluoro-4-[6,8,8-trimethyl-2-(8-oxa-3-azabicyclo[3.2.1]oct-3-yl)-5-oxo-5,6,7,8-tetrahydro-9-oxa-1,3,6-triazabenzocyclohepten-4-yl]phenyl}-3-[6-((S)-3-methylmorpholin-4-yl)pyridin-3-yl]urea] was tested, and the “PI3Ka IC50” value (PI3Kα (p110α/p85α)) was 5.91 µM, the IC50 (Akt-pS473 in U87MG cells) was 48 nM and the IC50 (U87MG tumour cells) was 0.119 µM. For the same compound, the IC50 [1] was 0.071 µM.

With `C[C@H]1COCCN1c1ccc(NC(=O)Nc2ccc(-c3nc(N4C5CCC4COC5)nc4c3C(=O)N(C)CC(C)(C)O4)cc2F)cn1` [Example 74, 1-{2-Fluoro-4-[6,8,8-trimethyl-2-(3-oxa-8-azabicyclo[3.2.1]oct-8-yl)-5-oxo-5,6,7,8-tetrahydro-9-oxa-1,3,6-triazabenzocyclohepten-4-yl]phenyl}-3-[6-((S)-3-methylmorpholin-4-yl)pyridin-3-yl]urea] the “PI3Ka IC50” value (PI3Kα (p110α/p85α)) was greater than 10 µM, the IC50 (Akt-pS473 in U87MG cells) was 31 nM and the IC50 (U87MG tumour cells) was 0.126 µM. The IC50 [1] was 0.064 µM.

With `CCN1CC(C)(C)Oc2nc(N3[C@@H]4CC[C@H]3COC4)nc(-c3ccc(NC(=O)Nc4ccncc4F)cc3)c2C1=O` [Example 75, 1-[4-((1S,5R)-6-Ethyl-8,8-dimethyl-2-3-oxa-8-azabicyclo[3.2.1]oct-8-yl-5-oxo-5,6,7,8-tetrahydro-9-oxa-1,3,6-triazabenzocyclohepten-4-yl)phenyl]-3-(3-fluoropyridin-4-yl)urea] the “PI3Ka IC50” value (PI3Kα (p110α/p85α)) was 5.57 µM, the IC50 (Akt-pS473 in U87MG cells) was 8 nM and the IC50 (U87MG tumour cells) was 0.047 µM. For the same compound, the IC50 [1] was 0.04 µM.

For `CCN1CC(C)(C)Oc2nc(N3CC4CCC(C3)O4)nc(-c3ccc(NC(=O)Nc4ccncc4F)c(F)c3)c2C1=O` [Example 76], the “PI3Ka IC50” value (PI3Kα (p110α/p85α)) was 2.36 µM, the IC50 (Akt-pS473 in U87MG cells) was 29 nM and the IC50 (U87MG tumour cells) was 0.367 µM. For the same compound, the IC50 [1] was 0.028 µM.

With `CCN1CC(C)(C)Oc2nc(N3CC4CCC(C3)O4)nc(-c3ccc(NC(=O)Nc4ccc(OC5CCOC5)cc4)c(F)c3)c2C1=O` (stereo not drawn) [Example 77, 1-{4-[6-Ethyl-8,8-dimethyl-2-(8-oxa-3-azabicyclo[3.2.1]oct-3-yl)-5-oxo-5,6,7,8-tetrahydro-9-oxa-1,3,6-triazabenzocyclohepten-4-yl]-2-fluorophenyl}-3-[4-(tetrahydrofuran-3-yloxy)phenyl]urea] the “PI3Ka IC50” value (PI3Kα (p110α/p85α)) was 4.49 µM, the IC50 (Akt-pS473 in U87MG cells) was 16 nM and the IC50 (U87MG tumour cells) was 0.053 µM. It also gave an IC50 [1] of 0.056 µM.

In the case of `CCN1CC(C)(C)Oc2nc(N3CC4CCC(C3)O4)nc(-c3ccc(NC(=O)Nc4ccnc(N(C)C)c4)c(F)c3)c2C1=O` [Example 78, 1-(2-Dimethylaminopyridin-4-yl)-3-{4-[6-ethyl-8,8-dimethyl-2-(8-oxa-3-azabicyclo[3.2.1]oct-3-yl)-5-oxo-5,6,7,8-tetrahydro-9-oxa-1,3,6-triazabenzocyclohepten-4-yl]-2-fluorophenyl}urea], the “PI3Ka IC50” value (PI3Kα (p110α/p85α)) is reported as 6.26 µM, the IC50 (Akt-pS473 in U87MG cells) is reported as 28 nM and the IC50 (U87MG tumour cells) is reported as 0.083 µM. For the same compound, the IC50 [1] was 0.09 µM.

For `CCN1CC(C)(C)Oc2nc(N3C4CCC3COC4)nc(-c3ccc(NC(=O)Nc4cc(OC)ccn4)cc3)c2C1=O` [Example 79, 1-{4-[6-Ethyl-8,8-dimethyl-2-(3-oxa-8-azabicyclo[3.2.1]oct-8-yl)-5-oxo-5,6,7,8-tetrahydro-9-oxa-1,3,6-triazabenzocyclohepten-4-yl]phenyl}-3-(4-methoxypyridin-2-yl)urea], the “PI3Ka IC50” value (PI3Kα (p110α/p85α)) was greater than 10 µM, the IC50 (Akt-pS473 in U87MG cells) was 41 nM and the IC50 (U87MG tumour cells) was 0.383 µM. For the same compound, the IC50 [1] was 0.053 µM.

For `CCN1CC(C)(C)Oc2nc(N3CC4CCC(C3)O4)nc(-c3ccc(NC(=O)Nc4ccnc(N5CCN(S(C)(=O)=O)CC5)c4)c(F)c3)c2C1=O` [Example 80, 1-{4-[6-Ethyl-8,8-dimethyl-2-(8-oxa-3-azabicyclo[3.2.1]oct-3-yl)-5-oxo-5,6,7,8-tetrahydro-9-oxa-1,3,6-triazabenzocyclohepten-4-yl]-2-fluorophenyl}-3-[2-(4-methanesulfonylpiperazin-1-yl)pyridin-4-yl]urea], the “PI3Ka IC50” value (PI3Kα (p110α/p85α)) was greater than 10 µM, the IC50 (Akt-pS473 in U87MG cells) was 48 nM and the IC50 (U87MG tumour cells) was 0.151 µM. For the same compound, the IC50 [1] was 0.072 µM.

For `CCN1CC(C)(C)Oc2nc(N3CC4CCC(C3)O4)nc(-c3ccc(NC(=O)Nc4ccc(N5CCN(C(=O)OC)CC5)nc4)c(F)c3)c2C1=O` [Example 81, 4-[5-(3-{4-[6-Ethyl-8,8-dimethyl-2-(8-oxa-3-azabicyclo[3.2.1]oct-3-yl)-5-oxo-5,6,7,8-tetrahydro-9-oxa-1,3,6-triazabenzocyclohepten-4-yl]-2-fluorophenyl}ureido)pyridin-2-yl]piperazine-1-carboxylic acid methyl ester], the “PI3Ka IC50” value (PI3Kα (p110α/p85α)) was 2.1 µM, the IC50 (Akt-pS473 in U87MG cells) was 17 nM and the IC50 (U87MG tumour cells) was 0.108 µM. It also gave an IC50 [1] of 0.124 µM.

In the case of `CN1CC(C)(C)Oc2nc(N3C4CCC3COC4)nc(-c3ccc(NC(=O)Nc4ccncc4)c(F)c3)c2C1=O` [Example 82, 1-{2-Fluoro-4-[6,8,8-trimethyl-2-(3-oxa-8-azabicyclo[3.2.1]oct-8-yl)-5-oxo-5,6,7,8-tetrahydro-9-oxa-1,3,6-triazabenzocyclohepten-4-yl]phenyl}-3-pyridin-4-ylurea], the “PI3Ka IC50” value (PI3Kα (p110α/p85α)) is reported as 2.24 µM, the IC50 (Akt-pS473 in U87MG cells) is reported as 13 nM and the IC50 (U87MG tumour cells) is reported as 0.029 µM. The IC50 [1] was 0.021 µM.

In the case of `CN1CC(C)(C)Oc2nc(N3CC4CCC(C3)O4)nc(-c3ccc(NC(=O)Nc4ccncc4)c(F)c3)c2C1=O` [Example 83, 1-{2-Fluoro-4-[6,8,8-trimethyl-2-(8-oxa-3-azabicyclo[3.2.1]oct-3-yl)-5-oxo-5,6,7,8-tetrahydro-9-oxa-1,3,6-triazabenzocyclohepten-4-yl]phenyl}-3-pyridin-4-ylurea], the “PI3Ka IC50” value (PI3Kα (p110α/p85α)) is reported as 1.46 µM, the IC50 (Akt-pS473 in U87MG cells) is reported as 16 nM and the IC50 (U87MG tumour cells) is reported as 0.041 µM. The IC50 [1] was 0.02 µM.

In the case of `CCN1CC(C)(C)Oc2nc(N3CC4CCC(C3)O4)nc(-c3ccc(NC(=O)Nc4ccccn4)cc3F)c2C1=O` [Example 84, 1-{4-[6-Ethyl-8,8-dimethyl-2-(8-oxa-3-azabicyclo[3.2.1]oct-3-yl)-5-oxo-5,6,7,8-tetrahydro-9-oxa-1,3,6-triazabenzocyclohepten-4-yl]-3-fluorophenyl}-3-pyridin-2-ylurea], the “PI3Ka IC50” value (PI3Kα (p110α/p85α)) is reported as greater than 10 µM, the IC50 (Akt-pS473 in U87MG cells) is reported as 255 nM and the IC50 (U87MG tumour cells) is reported as 0.76 µM. It also gave an IC50 [1] of 0.023 µM.

For `CN1CC(C)(C)Oc2nc(N3CC4CCC(C3)O4)nc(-c3ccc(NC(=O)Nc4ccncc4F)cc3)c2C1=O` [Example 85, 1-(3-Fluoropyridin-4-yl)-3-{4-[6,8,8-trimethyl-2-(8-oxa-3-azabicyclo[3.2.1]oct-3-yl)-5-oxo-5,6,7,8-tetrahydro-9-oxa-1,3,6-triazabenzocyclohepten-4-yl]phenyl}urea], the “PI3Ka IC50” value (PI3Kα (p110α/p85α)) was 1.95 µM, the IC50 (Akt-pS473 in U87MG cells) was 28 nM and the IC50 (U87MG tumour cells) was 0.077 µM. It also gave an IC50 [1] of 0.024 µM.

`CCN1CC(C)(C)Oc2nc(N3CC4CCC(C3)O4)nc(-c3ccc(NC(=O)Nc4ccnc5[nH]ccc45)c(F)c3)c2C1=O` [Example 86, 1-{4-[6-Ethyl-8,8-dimethyl-2-(8-oxa-3-azabicyclo[3.2.1]oct-3-yl)-5-oxo-5,6,7,8-tetrahydro-9-oxa-1,3,6-triazabenzocyclohepten-4-yl]-2-fluorophenyl}-3-(1H-pyrrolo[2,3-b]pyridin-4-yl)urea] was tested, and the “PI3Ka IC50” value (PI3Kα (p110α/p85α)) was greater than 10 µM, the IC50 (Akt-pS473 in U87MG cells) was 144 nM and the IC50 (U87MG tumour cells) was 0.49 µM. It also gave an IC50 [1] of 0.377 µM.

In the case of `C[C@@H]1COCCN1c1ccc(NC(=O)Nc2ccc(-c3nc(N4CC5CCC(C4)O5)nc4c3C(=O)N(C)CC(C)(C)O4)cc2F)cn1` [Example 87, 1-{2-Fluoro-4-[6,8,8-trimethyl-2-(8-oxa-3-azabicyclo[3.2.1]oct-3-yl)-5-oxo-5,6,7,8-tetrahydro-9-oxa-1,3,6-triazabenzocyclohepten-4-yl]phenyl}-3-[6-((R)-3-methylmorpholin-4-yl)pyridin-3-yl]urea], the “PI3Ka IC50” value (PI3Kα (p110α/p85α)) is reported as greater than 10 µM, the IC50 (Akt-pS473 in U87MG cells) is reported as 20 nM and the IC50 (U87MG tumour cells) is reported as 0.059 µM. It also gave an IC50 [1] of 0.057 µM.

With `CCN1CC(C)(C)Oc2nc(N3CC4CCC(C3)O4)nc(-c3ccc(NC(=O)OC[C@H](C)O)cc3)c2C1=O` [Example 88, {4-[6-Ethyl-8,8-dimethyl-2-(8-oxa-3-azabicyclo[3.2.1]oct-3-yl)-5-oxo-5,6,7,8-tetrahydro-9-oxa-1,3,6-triazabenzocyclohepten-4-yl]phenyl}carbamic acid (S)-2-hydroxypropyl ester] the “PI3Ka IC50” value (PI3Kα (p110α/p85α)) was greater than 10 µM, the inhibition at 1 µM (Akt-pS473 in U87MG cells; read-out: U87 Akt-pS473 % Inhibition) was 65% and the IC50 (U87MG tumour cells) was 1.9 µM. For the same compound, the IC50 [1] was 0.198 µM.

`CCN1CC(C)(C)Oc2nc(N3C4CCC3COC4)nc(-c3ccc(NC(=O)Nc4cc(OC)ccn4)cc3F)c2C1=O` [Example 89, 1-{4-[6-Ethyl-8,8-dimethyl-2-(3-oxa-8-azabicyclo[3.2.1]oct-8-yl)-5-oxo-5,6,7,8-tetrahydro-9-oxa-1,3,6-triazabenzocyclohepten-4-yl]-3-fluorophenyl}-3-(4-methoxypyridin-2-yl)urea] was tested, and the “PI3Ka IC50” value (PI3Kα (p110α/p85α)) was greater than 10 µM, the IC50 (Akt-pS473 in U87MG cells) was 260 nM and the IC50 (U87MG tumour cells) was 0.221 µM. It also gave an IC50 [1] of 0.084 µM.

`CCN1CC(C)(C)Oc2nc(N3CCOC[C@@H]3C)nc(-c3ccc(NC(=O)Nc4cc(C)nc(C)n4)cc3)c2C1=O` [Example 91, 1-(2,6-Dimethylpyrimidin-4-yl)-3-{4-[6-ethyl-8,8-dimethyl-2-((S)-3-methylmorpholin-4-yl)-5-oxo-5,6,7,8-tetrahydro-9-oxa-1,3,6-triazabenzocyclohepten-4-yl]phenyl}urea] was tested, and the “PI3Ka IC50” value (PI3Kα (p110α/p85α)) was 4.64 µM, the IC50 (Akt-pS473 in U87MG cells) was 47 nM and the IC50 (U87MG tumour cells) was 0.41 µM. It also gave an IC50 [1] of 0.053 µM.
